Converted amounts (≈) assume the structure as drawn.
Legend:
[1] = Aqueous solubility of the compound; type: physicochemical
[2] = system: Chikungunya virus; assay: (§1) Antiviral activity against CHIKV infected in human NHDF cells assessed as reduction in virus titer in cell supernatant by measuring inhibition of plaque formation using Vero cells pretreated with NHDF cells followed by infected with virus incubated for 24 hrs and measured following infection of supernatants with Vero cells for 48 hrs by plaque based methylene blue dye analysis; type: functional, organism-based
[3] = system: Chikungunya virus; assay: as §1, with “Vero cells at 10 uM pretreated with” for “Vero cells pretreated with”; type: functional; settings: time 72 hrs
[4] = (§2) Cytotoxicity against human NHDF cells assessed as cell viability measured after 24 hrs by Cell Titer Glo luminescent assay; type: cell-based; settings: NHDF cells
[5] = Metabolic stability in human liver microsomes assessed as half life in presence of NADPH incubated up to 45 mins by LC-MS/MS analysis; type: ADME, Microsome
[6] = Octanol-aqueous buffer distribution coefficient, log D of the compound by LC-MS analysis; type: physicochemical
[7] = Metabolic stability in mouse liver microsomes assessed as half life in presence of NADPH incubated up to 45 mins by LC-MS/MS analysis; type: ADME, Microsome; set-up: unit not given here; settings: for half-life: liver microsomes; for t1/2: microsomes, 0.75 h
[8] = system: dengue virus type 2; assay: (§3) Antiviral activity against DENV2 infected in HEK293 cells assessed as reduction in virus titer in cell supernatant by measuring inhibition of plaque formation using Vero cells at 10 uM measured following infection of supernatants with Vero cells for 48 hrs pi by serial dilution plaque based methylene blue dye analysis; type: functional
[9] = system: Chikungunya virus; type: functional; settings: 181-25, C6, time 48 hrs
[10] = system: West Nile virus; assay: as §3, with “West nile virus” for “DENV2”; type: functional
[11] = biological target: Dihydroorotate dehydrogenase (quinone), mitochondrial (Homo sapiens, UniProt Q02127)
[12] = system: Venezuelan equine encephalitis virus; assay: as §3, with “Venezuelan equine encephalitis virus TC83” for “DENV2”, “Asian tiger mosquito C6/36” for “HEK293”, “and” for “at 10 uM”; type: functional
[13] = system: NHDF; assay: as §2; type: cell-based; settings: nhdf, 24 h

Chain of Dihydroorotate dehydrogenase (quinone), mitochondrial (Q02127 whole entry): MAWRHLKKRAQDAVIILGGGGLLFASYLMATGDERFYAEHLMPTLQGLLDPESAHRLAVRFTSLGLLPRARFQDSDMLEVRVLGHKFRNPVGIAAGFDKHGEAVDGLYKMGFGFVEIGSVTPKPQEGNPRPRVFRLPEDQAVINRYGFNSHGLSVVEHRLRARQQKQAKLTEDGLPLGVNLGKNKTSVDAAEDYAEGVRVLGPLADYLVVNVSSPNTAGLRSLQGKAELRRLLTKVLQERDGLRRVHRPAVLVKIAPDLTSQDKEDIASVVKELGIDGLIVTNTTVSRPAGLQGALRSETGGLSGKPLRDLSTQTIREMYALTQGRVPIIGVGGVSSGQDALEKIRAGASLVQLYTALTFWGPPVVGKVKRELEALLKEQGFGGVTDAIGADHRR

| SMILES | solubility ([1]; aqueous, read-out: solubility) [µM] | EC50 [2] [µM] | log(activity) [3] | CC50 at 24 h [4] [µM] | half-life [5] [h] | logD [6] | half-life [7] | further results |
| --- | --- | --- | --- | --- | --- | --- | --- | --- |
| [2H]C([2H])([2H])Oc1cc2c(cc1NC(=O)c1ccc(C(C)(C)C)cc1)CCCCC2 | 28 (≈ 9.93 µg/mL) | 1 | 23 | > 30 | 31 | 3 |  |  |
| CC(C)(C)c1ccc(C(=O)Nc2ccc3c(c2)CCCCC3)cc1 |  | 0.7 | 3.9 | > 30 | 33 | 4 | 1380 | solubility ([1]; buffer): 35 µM (≈ 11.3 µg/mL) |
| CCOc1cc2c(cc1C(=O)Nc1ccc(C(C)(C)C)cc1)CCCCC2 |  | 3.8 | 1.5 | > 30 |  |  |  |  |
| COc1cc2c(cc1C(=O)Nc1ccc(C(C)(C)C)cc1)CCCCC2 | 0.5 (≈ 0.176 µg/mL) | 0.48 | 3.2 | > 30 | 99 | 4 |  | log(activity) [8]: 1.9; EC90 [9]: 1.6 µM; log(activity) [10]: 1.7; IC50 [11]: 3 µM; EC90 [12]: 2.9 µM |
| COc1cc2c(cc1NC(=O)c1ccc(C(C)(C)CO)cc1)CCCCC2 |  | 7.12 | 3.1 | > 30 |  |  |  |  |
| COc1cc2c(cc1C(=O)Nc1cc(C(C)(C)C)[nH]n1)CCCCC2 |  |  |  |  |  |  |  | IC50 [11]: > 30 µM |
| CC(C)(C)c1ccc(C(=O)Nc2cc3c(cc2OCc2ccccn2)CCC3)cc1 |  | 9 | 1.2 | > 30 |  |  |  |  |
| COc1nc2c(cc1C(=O)Nc1ccc(C(C)(C)C)cn1)CCCCC2 | < 1 |  | 0.27 | > 30 | 88 | > 4.7 | 3960 |  |
| COc1cc2c(cc1NC(=O)c1ccc(C(C)(C)O)cc1)CCCCC2 | 8 (≈ 2.83 µg/mL) | 2.45 | 1.6 | > 30 | 254 | 4 | 1140 |  |
| COc1cc2c(cc1NC(=O)c1ccc(C(O)(C(F)(F)F)C(F)(F)F)cc1)CCCCC2 | < 1 | 2.8 | 3.1 | > 30 | 70 | 5 | 660 |  |
| COc1cc2c(nc1NC(=O)c1ccc(C(C)(C)C)cc1)CCCC2 |  |  | 1.3 | > 30 |  |  |  |  |
| COc1cc2c(cc1NC(=O)c1ccc(C3(C(F)(F)F)CC3)cc1)CCCCC2 | < 1 | 1.3 | 1 | > 30 | 67 | 6 | 1320 |  |
| CC(C)(C)c1ccc(C(=O)Nc2cc3c(cc2N)CCCCC3)cc1 |  |  | 0 | > 30 |  |  |  |  |
| COc1cc2c(cc1NC(=O)c1ccc(C(C)(C)C)cc1)CCCCN2C |  |  | <1 | > 30 |  |  |  |  |
| CCc1cc2c(cc1NC(=O)c1ccc(C(C)(C)C)cc1)CCCCC2 | < 1 | 1.7 | 4.9 | > 30 | 37 | 5 | 660 | IC50 [11]: > 30 µM |
| CC(C)(C)c1ccc(C(=O)Nc2cc3c(cc2OCc2ccccn2)CCCC3)cc1 |  | 9.1 | 1.1 | > 30 |  |  |  |  |
| COc1cc2c(cc1NC(=O)c1ccc(C(C)(C)C)cc1)CCCC(=O)N2 |  |  | <1 | > 30 |  |  |  |  |
| COc1cc2c(nc1NC(=O)c1ccc(C(C)(C)C)cc1)CCCCC2 |  | 0.59 | 3.18 | > 30 |  |  |  |  |
| CC(C)(C)c1ccc(NC(=O)c2cc3c(cc2O)CCCCC3)cc1 | < 1 | 1.54 | 3.3 | > 30 | 49 | 4.2 | 4680 | IC50 [11]: > 30 µM |
| COc1cc2c(cc1C(=O)Nc1ccc(C(C)(C)C)cn1)CCCCC2 |  |  |  |  |  |  |  | IC50 [11]: > 30 µM |
| COc1cc2c(cc1NC(=O)c1ccc(C(C)(C)C#N)cc1)CCCCC2 | 35 (≈ 12.7 µg/mL) | 1.6 | 1.7 | > 30 | 51 | 4 | 720 |  |
| COc1cc2c(cc1NC(=O)c1ccc(C(C)(C)C(F)(F)F)cc1)CCCCC2 | < 1 | 3.47 | 1.8 | > 30 | 106 | 6 | 2100 |  |
| CC(C)(C)c1ccc(C(=O)Nc2cc3c(cc2F)CCCCC3)cc1 | 33 (≈ 11.2 µg/mL) | 0.8 | 4.9 | > 30 | 28 | 4 |  | t1/2 [7]: 4 |
| COc1cc2c(cc1NC(=O)c1ccc(C(C)(C)C)cc1)CCC2 |  |  | <1 | > 30 |  |  |  |  |
| CC(C)(C)c1ccc(C(=O)Nc2cc3c(cc2OC(F)(F)F)CCCCC3)cc1 |  | 3.7 |  | > 30 |  | 5 |  | solubility ([1]; buffer): 8 µM (≈ 3.24 µg/mL); t1/2 [7]: 127 |

| SMILES | solubility ([1]; aqueous, read-out: solubility) [µM] | EC50 [2] [µM] | log(activity) [3] | CC50 at 24 h [4] [µM] | half-life [5] [h] | logD [6] | half-life [7] | further results |
| --- | --- | --- | --- | --- | --- | --- | --- | --- |
| CC(C)(C)c1ccc(C(=O)Nc2cc3c(cc2O)CCCCC3)cc1 |  | 0.4 | 3.5 | > 30 | 74 | 5 | 1860 | solubility ([1]; buffer): 1 µM (≈ 0.337 µg/mL); IC50 [11]: > 30 µM |
| CC(C)(C)c1ccc(C(=O)Nc2cc3c(cc2C(F)(F)F)CCCCC3)cc1 |  |  | 0 | > 30 |  |  |  |  |
| CCOc1cc2c(cc1NC(=O)c1ccc(C(C)(C)C)cc1)CCCCC2 |  | 5.19 | 2.2 | > 30 |  |  |  |  |
| COc1cc2c(cc1NC(=O)c1ccc(C3(O)CCC3)cc1)CCCCC2 |  |  | <1 | > 30 |  |  |  |  |
| CCOc1cc2c(cc1NC(=O)c1ccc(C(C)(C)C)cc1)CCC2 |  | 6.23 | 1 | > 30 |  |  |  |  |
| COc1cc2c(cc1C(=O)Nc1ccc(C(C)(C)O)cc1)CCCCC2 |  | 8 | 1.6 | > 30 |  |  |  | IC50 [11]: 24.1 µM |
| CCCOc1cc2c(cc1NC(=O)c1ccc(C(C)(C)C)cc1)CCCCC2 |  | 7.05 | 1 | > 30 |  |  |  |  |
| CC(C)(C)c1ccc(C(=O)Nc2cc3c(cc2CO)CCCCC3)cc1 | < 1 |  | <1 | > 30 | 64 | 4 | 1320 |  |
| COc1nc2c(cc1NC(=O)c1ccc(C(C)(C)C)cc1)CCCC2 |  | 2.3 | 6.7 | > 30 |  |  |  |  |
| CC(C)(C)c1ccc(NC(=O)c2cc3c(cc2OC(F)F)CCCCC3)cc1 |  |  | 1.4 | > 30 | 70 | 5 | 660 |  |
| COc1cc2c(cc1NC(=O)c1ccc(C(C)(C)C)cc1)CCCCN2 |  | 3.3 | 3.9 | > 30 |  |  |  |  |
| COc1nc2c(cc1C(=O)Nc1ccc(C(C)(C)C)cc1)CCCCC2 | 1.8 (≈ 0.634 µg/mL) |  | 1.3 | > 30 | 102 | 4.6 | 2700 |  |
| CC(C)(C)c1ccc(C(=O)Nc2cc3c(cc2OCc2ccccn2)CCCCC3)cc1 |  |  | <1 |  |  |  |  | CC50 [13]: 9.4 µM |
| CC(C)(C)c1ccc(C(=O)Nc2cc3c(cc2C#N)CCCCC3)cc1 | < 1 | 4.4 | 1.8 | > 30 | 76 | 5 | 1860 |  |
| CC(C)(C)c1ccc(C(=O)Nc2cc3c(cc2[N+](=O)[O-])CCCCC3)cc1 |  |  | 0 | > 30 |  |  |  |  |
| COc1nc2c(cc1C(=O)Nc1ncc(C(C)(C)C)cn1)CCCCC2 |  | 9 | 1.95 | > 30 | 67 | 3 | 1620 | solubility ([1]; buffer): 64 µM (≈ 22.7 µg/mL) |
| CC(=O)Oc1cc2c(cc1NC(=O)c1ccc(C(C)(C)C)cc1)CCCCC2 | < 1 | 2.8 | 52 | > 30 | 7 | 5 |  |  |
| COCCOc1cc2c(cc1NC(=O)c1ccc(C(C)(C)C)cc1)CCCCC2 |  |  | 0 | > 30 |  |  |  |  |
| CCc1cc2c(cc1C(=O)Nc1ccc(C(C)(C)C)cc1)CCCCC2 |  |  | 0.2 | > 30 |  |  |  |  |
| Cc1cc2c(cc1NC(=O)c1ccc(C(C)(C)C)cc1)CCCCC2 | < 1 | 2.41 | 3.5 | > 30 | 63 | 4 | 660 |  |
| COc1cc2c(cc1NC(=O)c1ccc(C(C)(C)C)cc1)CCCC(=O)N2C(C)C |  | 5.1 | 1.7 | > 30 |  |  |  |  |
| CCOc1cc2c(cc1NC(=O)c1ccc(C(C)(C)C)cc1)CCCC2 |  | 7.78 | 1 |  |  |  |  | CC50 [13]: 3.86 µM |
| COc1cc2c(cc1C(=O)Nc1ccc(-c3cc[nH]n3)cc1)CCCCC2 |  | 3.4 | 5.9 | > 30 |  |  |  |  |
| COc1cc2c(nc1NC(=O)c1ccc(C(C)(C)C)cn1)CCCCC2 |  | 2.9 | 4.05 | > 30 |  |  |  | IC50 [11]: > 30 µM |

Source: ChEMBL document CHEMBL4834424, “Targeting Chikungunya Virus Replication by Benzoannulene Inhibitors” (J Med Chem, 2021)
